Reference: ChEMBL document CHEMBL4196086, “Recent advances of imidazole-containing derivatives as anti-tubercular agents” (Eur J Med Chem, 2018)
In brackets after ≈: the same amount, converted by molar mass.

Experiments:
Format in all cases: functional
[1] = test system: Mycobacterium tuberculosis; experiment: Potency index, ratio of PA-824 MIC to compound MIC for Mycobacterium tuberculosis
[2] = test system: Mycobacterium tuberculosis; experiment: Potency index, ratio of ethambutol MIC to compound MIC for Mycobacterium tuberculosis
[3] = test system: Mycobacterium tuberculosis; experiment: Potency index, ratio of ethionamide MIC to compound MIC for Mycobacterium tuberculosis
[4] = test system: Mycobacterium tuberculosis; experiment: Antimycobacterial activity against Mycobacterium tuberculosis
[5] = test system: Mycobacterium tuberculosis; experiment: Potency index, ratio of isoniazid MIC to compound MIC for Mycobacterium tuberculosis
[6] = test system: Mycobacterium tuberculosis; experiment: Potency index, ratio of ofloxacin MIC to compound MIC for Mycobacterium tuberculosis
[7] = test system: Mycobacterium tuberculosis; experiment: Potency index, ratio of streptomycin MIC to compound MIC for Mycobacterium tuberculosis

With `Cc1ccn2c(C(=O)NCc3ccccc3Cl)c(C)nc2c1` the Ratio [1] was greater than 100, the Ratio [2] was greater than 100 and the Ratio [3] was greater than 100. For the same compound, the MIC [4] was 3 nM (≈ 0.941 ng/mL), the Ratio [5] was greater than 100 and the Ratio [6] was greater than 100. For the same compound, the Ratio [7] was greater than 100.
